Experimental data reported in patent US20110230536A1, “PHENYLPYRAZOLE INHIBITORS OF STORE OPERATED CALCIUM RELEASE” (CalciMedica, Inc., priority 2008, published 2011).

System: Jurkat cells and colon cancer cells
Experiment: not given
Settings: cited from earlier work

Row | Structure (SMILES) | inhibition of SOCE
1 | Cc1nnsc1C(=O)Nc1ccc(-n2nc(C(F)(F)F)cc2C(F)(F)F)cc1 [BTP-2] | inhibits

Target: STIM1 and Orai1 in HEK293 cells (Homo sapiens, UniProt Q96D31)
Experiment: not given
Settings: HEK293 cells coexpressing STIM1 and Orai1; cited from earlier work

Sequence of STIM1 and Orai1 in HEK293 cells (Q96D31 whole entry): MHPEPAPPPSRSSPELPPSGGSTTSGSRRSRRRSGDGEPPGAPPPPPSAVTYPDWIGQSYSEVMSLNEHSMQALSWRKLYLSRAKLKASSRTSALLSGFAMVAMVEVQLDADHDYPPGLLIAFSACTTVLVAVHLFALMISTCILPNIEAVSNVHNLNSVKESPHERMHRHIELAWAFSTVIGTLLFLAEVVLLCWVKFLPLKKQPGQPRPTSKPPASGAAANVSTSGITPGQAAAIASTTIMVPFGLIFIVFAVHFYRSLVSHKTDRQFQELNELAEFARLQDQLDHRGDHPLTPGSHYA

Row | Structure (SMILES) | block of store-dependent Ca2+ entry
2 | NCCOB(c1ccccc1)c1ccccc1 [2-aminoethoxydiphenylborate] | completely blocked

System: JR251 or RBL cells
Experiment: Fluorescence-based assay of store-operated calcium entry (JR251 or RBL cells)
Type: cell-based
Settings: in either JR251 or RBL cells, or both
Description: Fluorescence-based assays are used for screening the compounds described herein, such as compounds of Formulas (I) and (II) which modulate intracellular calcium. […]
B. Fluorescence-based Assay of Store-Operated Calcium Entry in RBL-2H3 Cells.
RBL-2H3 cells are obtained from ATCC and maintained in complete medium with 10% FBS at 37° C./6% CO2.
The day prior to performing the assay, RBL-2H3 cells are plated in 50 μL of complete medium in a 384 well plate. Cells are grown at 37° C./6% CO2 overnight and grow to 50-60% confluence by the next day. On the assay day, 1.5 μM Fluo-4-AM dye (Invitrogen) in complete medium is added and incubated for 1 hour at RT. Cells are washed twice in Ca^2+-free HBSS buffer and 35 μL Ca^2+-free HBSS buffer is added to each well. 10 μL of a test compound prepared in a Ca^2+-free HBSS solution at 4.5× of the desired concentration is added to a well and incubated for 5 minutes at RT. 10 μL of thapsigargin prepared in a Ca^2+-free HBSS solution at 5.5× of the desired concentration (5.5 uM) is added to each well and incubated for an additional 25 minutes. The initial baseline fluorescence signal is measured with a FLIPR^384 (Molecular Devices) plate reader. 5 μL of 12× calcium in HBSS (12 mM) is added and changes in cellular fluorescence are measured with the FLIPR^384 plate reader. In each well, the change in the fluorescent signal as a function of time due to calcium entry into the cell is determined by calculating the difference between the fluorescent signal measured 7 seconds after calcium addition and the initial baseline fluorescence signal at time zero (t=0). This parameter is designated Upslope. The IC50 value is calculated as the concentration at which 50% of the Upslope is inhibited. […]

Row | IC50 [µM] | Structure (SMILES)
3 | < 10 | Cc1cc(C(F)(F)F)n(-c2ccc(NC(=O)c3ccc(Cl)cc3)cc2[N+](=O)[O-])n1 [4-Chloro-N-(4-(3-methyl-5-(trifluoromethyl)-1H-pyrazol-1-yl)-3-nitrophenyl)benzamide]
4 | < 10 | COc1ccc(C(=O)Nc2ccc(-n3nc(C)cc3C(F)(F)F)c(N)c2)cc1 [N-(3-amino-4-(3-methyl-5-(trifluoromethyl)-1H-pyrazol-1-yl)phenyl)-4-methoxybenzamide]
5 | < 10 | COc1ccc(C(=O)Nc2ccc(-n3nc(C)cc3C(F)(F)F)c([N+](=O)[O-])c2)cc1 [4-methoxy-N-(4-(3-methyl-5-(trifluoromethyl)-1H-pyrazol-1-yl)-3-nitrophenyl)benzamide]
6 | < 10 | COc1ccc(C(=O)Nc2ccc(-n3nc(-c4ccccc4)cc3C)c(N)c2)cc1 [N-(3-amino-4-(5-methyl-3-phenyl-1H-pyrazol-1-yl)phenyl)-4-methoxybenzamide]
7 | < 10 | Cc1cc(-c2ccccc2)nn1-c1ccc(NC(=O)c2cccs2)cc1N [N-(3-amino-4-(5-methyl-3-phenyl-1H-pyrazol-1-yl)phenyl)thiophene-2-carboxamide]
8 | < 10 | COc1ccc(C(=O)Nc2ccc(-n3nc(C(F)(F)F)cc3C)c(N)c2)cc1 [N-(3-amino-4-(5-methyl-3-(trifluoromethyl)-1H-pyrazol-1-yl)phenyl)-4-methoxybenzamide]
9 | < 10 | Cc1cc(C(F)(F)F)nn1-c1ccc(C(=O)Nc2ccccc2Cl)cc1N [3-amino-N-(2-chlorophenyl)-4-(5-methyl-3-(trifluoromethyl)-1H-pyrazol-1-yl)benzamide]
10 | < 10 | Cc1cc(C(F)(F)F)n(-c2ccc(C(=O)Nc3ccccc3Cl)cc2[N+](=O)[O-])n1 [N-(2-chlorophenyl)-4-(3-methyl-5-(trifluoromethyl)-1H-pyrazol-1-yl)-3-nitrobenzamide]
11 | < 10 | CCc1cc(CC)n(-c2ccc(NC(=O)c3ccc(Cl)cc3)cc2[N+](=O)[O-])n1 [4-chloro-N-(4-(3,5-diethyl-1H-pyrazol-1-yl)-3-nitrophenyl)benzamide]
12 | < 10 | COc1cc(C(=O)Nc2ccccc2Cl)ccc1-n1nc(C(F)(F)F)cc1C [N-(2-chlorophenyl)-3-methoxy-4-(5-methyl-3-(trifluoromethyl)-1H-pyrazol-1-yl)benzamide]
13 | < 10 | COc1cc(C(=O)Nc2ccccc2Cl)ccc1-n1nc(C)cc1C(F)(F)F [N-(2-chlorophenyl)-3-methoxy-4-(3-methyl-5-(trifluoromethyl)-1H-pyrazol-1-yl)benzamide]
14 | < 10 | Cc1cc(C(F)(F)F)nn1-c1ccc(C(=O)Nc2ccccc2Cl)cc1[N+](=O)[O-] [N-(2-chlorophenyl)-4-(5-methyl-3-(trifluoromethyl)-1H-pyrazol-1-yl)-3-nitrobenzamide]
15 | < 10 | COc1ccc(C(=O)Nc2ccc(-n3nc(C(F)(F)F)cc3C)c([N+](=O)[O-])c2)cc1 [4-methoxy-N-(4-(5-methyl-3-(trifluoromethyl)-1H-pyrazol-1-yl)-3-nitrophenyl)benzamide]
16 | < 10 | Cc1cc(C(F)(F)F)nn1-c1ccc(C(=O)Nc2ccc(Cl)cc2)cc1N [3-amino-N-(4-chlorophenyl)-4-(5-methyl-3-(trifluoromethyl)-1H-pyrazol-1-yl)benzamide]
17 | < 10 | Cc1cc(C(F)(F)F)n(-c2ccc(C(=O)Nc3ccccc3Cl)cc2N)n1 [3-amino-N-(2-chlorophenyl)-4-(3-methyl-5-(trifluoromethyl)-1H-pyrazol-1-yl)benzamide]
18 | < 10 | COc1cc(C(=O)Nc2ccc(Cl)cc2)ccc1-n1nc(C(F)(F)F)cc1C [N-(4-chlorophenyl)-3-methoxy-4-(5-methyl-3-(trifluoromethyl)-1H-pyrazol-1-yl)benzamide]
19 | < 10 | Cc1cc(-c2ccccc2)nn1-c1ccc(NC(=O)c2cccs2)cc1[N+](=O)[O-] [N-(4-(5-methyl-3-phenyl-1H-pyrazol-1-yl)-3-nitrophenyl)thiophene-2-carboxamide]

System: Jurkat cells and colon cancer cells
Experiment: not given
Settings: cited from earlier work
Remark: another data set of the same source

Row | Structure (SMILES) | inhibition of proliferation
20 | Cc1nnsc1C(=O)Nc1ccc(-n2nc(C(F)(F)F)cc2C(F)(F)F)cc1 [BTP-2] | inhibits
